# Assays:
# human LFA-1 = biological target: T1, human LFA-1 (Homo sapiens, UniProt P20701); experiment: Cell free assay: binding of soluble human ICAM-1 to immobilized human LFA-1
# T1 construct: endogenous in cells; host or cells: JY cells (human lymphoblastoid B cell line)
# Procedure: A. In Vitro: Cell Free Assay
# The assay measures the binding of soluble human ICAM-1 to immobilized human LFA-1. LFA-1 is purified from JY cells, a human lymphoblastoid B cell-line, by immunoaffinity chromatography as described by Dustin et al. (J. Immunol. 148, 2654-2663, 1992). ICAM-1 mouse Cκ fusion protein (ICAM-1) is produced using the baculovirus system as described by Weitz-Schmidt et al. (Anal. Biochem.238, 184-190, 1996).
# Purified LFA-1 is diluted 1:20 in phosphate buffered saline (PBS) containing 2 mM MgCl2, pH 7.4 and coated onto microtitre plates (Nunc) at 37° C. for 3 h. Plates are blocked with 1% heat-treated BSA in PBS for 2 hours at 37° C. followed by a washing step using PBS, 2 mM MgCl2, 1% fetal calf serum, pH 7.4 (assay buffer). Compounds dissolved at 10 mM in DMSO are diluted in assay buffer and added to the plates. Biotinylated recombinant ICAM-1 in assay buffer (6 μg/ml) is added and allowed to bind at 37° C. for one hour. After incubation, wells are washed with assay buffer. Streptavidin-peroxidase diluted 1:5000 in assay buffer is added and incubated for 45 min at 37° C. Plates are then washed with assay buffer and 2,2′-azino-bis(3-ethylbenzothiazoline-6 sulfonic acid) diammonium salt substrate solution is added to each well. The reaction is stopped after 20 min and bound ICAM-1 is determined by measuring the optical density at 405 nm in a microplate reader.
# carrageenan paw swelling = experiment: Rat carrageenan edema model; type: in vivo, OFA rats; details: about 0.3 to 30 mg/kg p.o.
# Procedure: iii) Rat Carrageenan Edema Model Male OFA rats are treated orally with the compound to be tested or vehicle (saline). One to three hours later (0 hours) the rats receive a 100 μl intra-plantar injection of a 1% w/v carrageenan solution in 0.9% saline in the hind paw and the diameter of the paw is measured by means of a micro-calliper. The paw diameter measurements are repeated at times +3 and +5 hours after injection of the carrageenan.
# [1] = tested on: mBSA antigen-induced arthritis; experiment: Mouse antigen-induced arthritis model; type: in vivo, OFA-1 mice; details: about 0.3 to 30 mg/kg p.o.
# Procedure: iv) Mouse Antigen-induced Arthritis Model The test for rheumatoid arthritis is carried out by a modification of that described by Van de Loo et al., Arthritis Rheum. 1995; 35:164-172, e.g., as follows: Female OFA-1 mice are sensitised intradermally on the back at two sites to methylated bovine serum albumin (mBSA) homogenised 1:1 with complete Freund's adjuvant on days −21 and −14 (0.1 ml containing 1 mg/ml mBSA). On day 0, the right knee receives 10 μl of 10 mg/ml mBSA in 5% glucose solution (antigen injected knee), while the left knee receives 10 μl of 5% glucose solution alone (vehicle injected knee). The diameters of the left and right knees are then measured using calipers immediately after the intra-articular injections and again on days 2, 4, 7, 9, 11 and 14. […] Right knee swelling is calculated as a ratio of left knee swelling, and the R/L knee swelling ratio plotted against time to give Area Under the Curve (AUC) graphs for control and treatment groups. The percentage inhibition of the individual treatment group AUCs are calculated vs the control group AUC (0% inhibition) using an Excel spreadsheet. […] After staining, the slides are number coded as left knee/right knee pairs from each animal and scored in a blinded fashion for inflammatory cell infiltrate/hyperplasia, joint damage/erosions and cartilage proteoglycan loss.
# T1 sequence (P20701 26-1170): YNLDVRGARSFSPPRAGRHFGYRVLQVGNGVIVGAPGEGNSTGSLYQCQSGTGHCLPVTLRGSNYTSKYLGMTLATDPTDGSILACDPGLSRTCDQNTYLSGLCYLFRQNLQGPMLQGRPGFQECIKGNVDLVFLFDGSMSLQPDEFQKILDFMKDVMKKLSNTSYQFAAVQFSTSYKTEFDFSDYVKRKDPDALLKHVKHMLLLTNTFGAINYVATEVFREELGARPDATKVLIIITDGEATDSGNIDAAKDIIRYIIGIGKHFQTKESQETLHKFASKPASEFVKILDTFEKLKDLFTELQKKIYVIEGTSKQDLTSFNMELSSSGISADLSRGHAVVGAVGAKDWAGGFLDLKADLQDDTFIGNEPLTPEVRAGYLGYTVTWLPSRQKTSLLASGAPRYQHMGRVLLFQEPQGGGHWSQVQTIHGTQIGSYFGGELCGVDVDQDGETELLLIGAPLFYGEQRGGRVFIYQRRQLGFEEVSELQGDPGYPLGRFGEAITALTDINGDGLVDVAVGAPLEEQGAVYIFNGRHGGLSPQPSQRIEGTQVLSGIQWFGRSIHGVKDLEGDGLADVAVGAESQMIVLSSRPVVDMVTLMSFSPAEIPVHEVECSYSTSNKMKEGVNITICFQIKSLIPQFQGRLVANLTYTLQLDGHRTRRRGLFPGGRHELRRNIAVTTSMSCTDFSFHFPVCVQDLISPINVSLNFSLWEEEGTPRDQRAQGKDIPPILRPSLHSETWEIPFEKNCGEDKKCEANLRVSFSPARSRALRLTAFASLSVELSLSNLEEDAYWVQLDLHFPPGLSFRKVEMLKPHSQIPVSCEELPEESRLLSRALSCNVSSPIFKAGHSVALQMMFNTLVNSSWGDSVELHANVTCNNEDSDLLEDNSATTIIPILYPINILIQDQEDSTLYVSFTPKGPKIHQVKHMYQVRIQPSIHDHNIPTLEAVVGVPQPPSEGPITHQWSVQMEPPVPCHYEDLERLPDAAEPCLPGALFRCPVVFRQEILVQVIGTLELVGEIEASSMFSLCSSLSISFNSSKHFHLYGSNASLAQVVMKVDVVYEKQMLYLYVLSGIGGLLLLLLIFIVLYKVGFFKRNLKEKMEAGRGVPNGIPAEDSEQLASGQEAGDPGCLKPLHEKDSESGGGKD
# T1 sequence (P05107 23-769 partner): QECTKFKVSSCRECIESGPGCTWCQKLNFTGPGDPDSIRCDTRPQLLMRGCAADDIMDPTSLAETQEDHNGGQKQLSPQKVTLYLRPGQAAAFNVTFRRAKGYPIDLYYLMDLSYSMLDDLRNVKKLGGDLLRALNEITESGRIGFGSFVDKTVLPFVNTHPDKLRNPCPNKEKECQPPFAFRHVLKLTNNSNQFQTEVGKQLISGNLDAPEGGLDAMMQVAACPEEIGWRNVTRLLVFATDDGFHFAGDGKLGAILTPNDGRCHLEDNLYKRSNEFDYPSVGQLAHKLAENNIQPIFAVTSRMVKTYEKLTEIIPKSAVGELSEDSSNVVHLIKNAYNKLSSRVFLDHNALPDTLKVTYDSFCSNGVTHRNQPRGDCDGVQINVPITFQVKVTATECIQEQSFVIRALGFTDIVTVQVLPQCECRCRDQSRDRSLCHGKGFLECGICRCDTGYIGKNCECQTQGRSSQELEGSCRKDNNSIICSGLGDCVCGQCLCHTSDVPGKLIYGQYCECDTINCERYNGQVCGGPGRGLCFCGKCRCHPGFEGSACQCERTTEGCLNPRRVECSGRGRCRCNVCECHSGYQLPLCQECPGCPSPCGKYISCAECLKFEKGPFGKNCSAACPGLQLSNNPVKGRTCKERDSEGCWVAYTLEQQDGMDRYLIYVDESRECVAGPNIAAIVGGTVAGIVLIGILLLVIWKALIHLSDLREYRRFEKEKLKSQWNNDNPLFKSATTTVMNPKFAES
compound,measurement,setting,value
"CNC(=O)[C@H](Cc1ccc2ccccc2c1)N1CCC(=O)N(Cc2cnc3ccccc3c2)[C@@H](CC(C)C)C1=O [Example 1, 1H-1,4-Diazepine-1-acetamide, hexahydro-N-methyl-3-(2-methylpropyl)-α-[(2-naphthalenyl)methyl]-2,5-dioxo-4-[(3-quinolinyl)methyl]-, (αS,3S)-]",IC50,human LFA-1,~30 nM
same,inhibition of paw swelling,carrageenan paw swelling,inhibits paw swelling
same,inhibition of knee swelling,[1],inhibits knee swelling
same,histological damage to the knee,[1]; day 14 histology,significantly reduces the histological damage to the knee

# — patent US6642225B2, “Diazacycloalkanedione derivatives” (Novartis AG, priority 2000, dated 2003)
